Experimental data reported in ChEMBL document CHEMBL1158235, “Dendroamides, new cyclic hexapeptides from a blue-green alga. Multidrug-resistance reversing activity of dendroamide A” (J Nat Prod, 1996).
Calls of active or inactive are those of the source. The calls are words filed in the database; no cut-off is given here.

Assays:
Type in all cases: cell-based
NCI/ADR-RES [1] = test: Displacement of [3H]azidopine from p-glycoprotein expressed in human MCF7/ADR cells assessed as photoaffinity labeling reduction at 0.5 uM; design: scale not given: the % may be the effect or the level left
[2] = biological target: T1, ATP-dependent translocase ABCB1 (Homo sapiens, UniProt P08183); test: Inhibition of p-glycoprotein expressing human MCF7/ADR cells assessed as cell killing after 48 hrs by SRB binding assay in presence of 15M daunomycin; conditions: nci/adr-res
T1 sequence (P08183 whole entry): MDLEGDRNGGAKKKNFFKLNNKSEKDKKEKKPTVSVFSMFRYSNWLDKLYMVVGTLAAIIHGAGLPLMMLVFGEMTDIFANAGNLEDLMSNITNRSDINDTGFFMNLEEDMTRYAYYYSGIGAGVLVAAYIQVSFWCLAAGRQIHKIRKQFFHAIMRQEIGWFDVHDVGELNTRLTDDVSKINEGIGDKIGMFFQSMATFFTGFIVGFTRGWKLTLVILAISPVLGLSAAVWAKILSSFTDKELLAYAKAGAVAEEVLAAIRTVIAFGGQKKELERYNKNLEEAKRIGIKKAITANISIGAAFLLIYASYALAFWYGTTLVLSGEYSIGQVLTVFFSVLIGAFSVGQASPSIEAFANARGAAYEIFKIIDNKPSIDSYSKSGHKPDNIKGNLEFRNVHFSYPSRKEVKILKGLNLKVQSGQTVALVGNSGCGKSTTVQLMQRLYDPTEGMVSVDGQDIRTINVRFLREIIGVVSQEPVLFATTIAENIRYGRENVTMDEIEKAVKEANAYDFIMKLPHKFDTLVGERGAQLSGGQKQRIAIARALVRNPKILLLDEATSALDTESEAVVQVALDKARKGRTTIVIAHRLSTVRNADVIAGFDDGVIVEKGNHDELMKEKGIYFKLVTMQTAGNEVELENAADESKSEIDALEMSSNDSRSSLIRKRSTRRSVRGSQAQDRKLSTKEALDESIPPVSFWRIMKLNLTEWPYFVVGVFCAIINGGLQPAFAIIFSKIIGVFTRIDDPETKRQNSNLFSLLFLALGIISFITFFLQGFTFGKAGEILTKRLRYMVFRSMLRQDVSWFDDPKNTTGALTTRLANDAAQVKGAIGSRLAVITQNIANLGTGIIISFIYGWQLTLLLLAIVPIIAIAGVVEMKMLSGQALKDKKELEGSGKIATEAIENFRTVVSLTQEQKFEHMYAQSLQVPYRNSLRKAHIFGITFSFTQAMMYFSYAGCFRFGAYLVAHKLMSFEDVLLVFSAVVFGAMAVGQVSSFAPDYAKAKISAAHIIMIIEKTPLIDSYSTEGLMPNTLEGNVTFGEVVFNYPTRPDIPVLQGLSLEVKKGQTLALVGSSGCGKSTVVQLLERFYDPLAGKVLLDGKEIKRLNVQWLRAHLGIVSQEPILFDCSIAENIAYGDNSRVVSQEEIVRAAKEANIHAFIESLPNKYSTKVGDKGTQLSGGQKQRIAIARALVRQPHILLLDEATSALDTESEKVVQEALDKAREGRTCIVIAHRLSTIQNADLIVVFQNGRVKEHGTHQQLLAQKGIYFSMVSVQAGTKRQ

[3] = biological target: T1, ATP-dependent translocase ABCB1; test: Inhibition of p-glycoprotein expressing human MCF7/ADR cells assessed as cell killing after 48 hrs by SRB binding assay in presence of 200 uM actinomycin D; conditions: nci/adr-res
MCF7/VP [4] = test: Inhibition of MRP expressing human MCF7/VP cells assessed as increase in vincristine-induced cytotoxicity at 5 to 10 uM after 48 hrs by SRB binding assay
[5] = biological target: T1, ATP-dependent translocase ABCB1; test: Inhibition of p-glycoprotein expressing human MCF7/ADR cells assessed as increase in vinblastine sensitivity to cell killing at 0.6 uM after 48 hrs by SRB assay; conditions: nci/adr-res
[6] = biological target: T1, ATP-dependent translocase ABCB1; test: Inhibition of p-glycoprotein expressing human MCF7/ADR cells assessed as cell killing after 48 hrs by SRB binding assay in presence of 4 uM cisplatin; conditions: nci/adr-res
MCF7/VP [7] = test: Inhibition of MRP expressed in human MCF7/VP cells assessed as increase in etoposide-induced cytotoxicity
[8] = biological target: T1, ATP-dependent translocase ABCB1; test: Inhibition of p-glycoprotein expressing human MCF7 cells assessed as [3H]vinblastine accumulation
MCF7/VP [9] = test: Inhibition of MRP expressed in human MCF7/VP cells assessed as increase in doxorubicin-induced cytotoxicity
MCF7/VP [10] = test: Inhibition of MRP expressed in human MCF7/VP cells assessed as increase in cisplatin-induced cytotoxicity
NCI/ADR-RES [11] = test: Displacement of [3H]azidopine from p-glycoprotein expressed in human MCF7/ADR cells assessed as photoaffinity labeling reduction at 10 uM; design: scale not given: the % may be the effect or the level left
[12] = biological target: T1, ATP-dependent translocase ABCB1; test: Inhibition of p-glycoprotein expressing human MCF7/ADR cells assessed as [3H]vinblastine accumulation treated at 5 uM measured after 60 mins; conditions: nci/adr-res, 1 h
[13] = biological target: T1, ATP-dependent translocase ABCB1; test: Inhibition of p-glycoprotein expressing human MCF7/ADR cells assessed as [3H]vinblastine accumulation treated at 20 uM measured after 60 mins; conditions: nci/adr-res, 1 h
MCF7/VP [14] = test: Inhibition of MRP expressed in human MCF7/VP cells assessed as increase in vincristine-induced cytotoxicity at 20 uM after 48 hrs by SRB binding assay

Activity [8] | Activity [12] | Activity [13] | SMILES | Activity (NCI/ADR-RES [1]) | Activity [2] | Activity [3] | Activity (MCF7/VP [4]) | Activity [5] | Activity [6] | Activity (MCF7/VP [7]) | Activity (MCF7/VP [9]) | Activity (MCF7/VP [10]) | Activity (NCI/ADR-RES [11]) | Activity (MCF7/VP [14])
Not Active | – | – | Cc1oc2nc1C(=O)N[C@H](C(C)C)c1nc(cs1)C(=O)N[C@H](C)c1nc(cs1)C(=O)N[C@@H]2C [DENDROAMIDE A] | 50% | Active | Active | Active | Active | Not Active | Active | Active | inactive | – | –
Not Active | Not Active | Not Active | CSCC[C@H]1NC(=O)c2csc(n2)[C@@H](C)NC(=O)c2nc(oc2C)[C@@H](C)NC(=O)c2csc1n2 [DENDROAMIDE B] | inactive | Not Active | Not Active | – | Not Active | Not Active | – | – | – | inactive | –
Not Active | Not Active | Not Active | Cc1oc2nc1C(=O)N[C@H](C)c1nc(cs1)C(=O)N[C@H](CC[S+](C)[O-])c1nc(cs1)C(=O)N[C@@H]2C (stereo partly specified) [DENDROAMIDE C] | inactive | Not Active | Not Active | – | Not Active | Not Active | – | – | – | inactive | –
Not Active | – | – | COc1ccc(CCN(C)CCCC(C#N)(c2ccc(OC)c(OC)c2)C(C)C)cc1OC (stereo unspecified) [VERAPAMIL] | – | – | – | – | – | – | – | – | – | 50% | Active
